{"source": "patent US12558393B2", "about": "“Compositions and methods of BDNF activation” (VDF Futureceuticals, Inc., priority 2013, dated 2026)", "test_system": "BDNF plasma levels", "assay": "Plasma BDNF by ELISA in healthy fasted subjects after a single oral dose", "type": "in vivo, human", "conditions": "50 mg single dose, five healthy subjects (FIG. 2)", "data": [{"smiles": "O=C(/C=C/c1ccc(O)c(O)c1)O[C@@H]1C[C@](O)(C(=O)O)C[C@@H](O)[C@H]1O", "note": "[chlorogenic acid]", "values": [{"measurement": "blood level of BDNF, increase", "result": "did not increase blood level of BDNF in a statistically significant manner"}]}]}
